Assay results taken from the SangsterLogP compilation.

Test: method code SF-HPLC, from DOI: 10.1080/10826079808000494
Details: pH 6.9

Row | logD | Compound
1 | 3.75 | COC(=O)C1=C(C)NC(C)=C(C(=O)OC(C)C)C1c1cccc2c1OCO2 (stereo not given)
2 | 3.21 | COC(=O)C1=C(C)NC(C)=C(C(=O)OCc2cccnc2)C1c1cccc2c1OCO2 (stereo not given)
3 | 3.17 | CCOC(=O)C1=C(C)NC(C)=C(C(=O)OC)C1c1cccc2c1OCCO2 (stereo not given)
4 | 3.54 | COCCOC(=O)C1=C(C)NC(C)=C(C(=O)OC(C)C)C1c1cccc2c1OCO2 (stereo not given)
5 | 3.74 | CCOC(=O)C1=C(C)NC(C)=C(C(=O)OC)C1c1ccccc1 (stereo not given)
6 | 3.92 | CCOC(=O)C1=C(C)NC(C)=C(C(=O)OCC)C1c1cccc2c1OCO2
7 | 3.18 | CCOC(=O)C1=C(C)NC(C)=C(C(=O)OC)C1c1cccc(OC)c1OC (stereo not given)
8 | 3.06 | COC(=O)C1=C(C)NC(C)=C(C(=O)OC)C1c1cccc2c1OCO2
9 | 4.31 | CCOC(=O)C1=C(C)NC(C)=C(C(=O)OC(C)C)C1c1cccc2c1OCO2 (stereo not given)

Continued, compound first:

Row | Compound | logD
10 | CCOC(=O)C1=C(C)NC(C)=C(C(=O)OC)C1c1cc(OC)c(OC)c(OC)c1 (stereo not given) | 2.99
11 | CCOC(=O)C1=C(C)NC(C)=C(C(=O)OC)C1c1ccc(OC)c(OC)c1 (stereo not given) | 3.2
12 | CC1=C(C#N)C(C)(C)C(C#N)=C(C)N1 | 2.47
13 | CCOC(=O)C1=C(C)NC(C)=C(C(=O)OC)C1c1cc(OC)c(O)c(OC)c1 (stereo not given) | 2.43
14 | CCOC(=O)C1=C(C)NC(C)=C(C(=O)OC)C1c1cc(OC)cc(OC)c1 (stereo not given) | 3.68
15 | CCOC(=O)C1=C(C)NC(C)=C(C(=O)OC)C1c1ccccc1OCOC (stereo not given) | 3.38
